Emax and Ki data for 23 compounds are collected here from patent EP1147083B1, “ARYLPIPERAZINYL-CYCLOHEXYL INDOLE DERIVATIVES FOR THE TREATMENT OF DEPRESSION” (Wyeth, priority 1999, dated 2000).

SMILES strings stand for the structures. Where two headings read alike, the source gives them in different places.

Assay [1] concerns the target T1, 5-HT1A cloned receptor membrane fragments (Homo sapiens, UniProt P08908).
T1 construct: expressed in transfected cells
T1 sequence (P08908 1-422): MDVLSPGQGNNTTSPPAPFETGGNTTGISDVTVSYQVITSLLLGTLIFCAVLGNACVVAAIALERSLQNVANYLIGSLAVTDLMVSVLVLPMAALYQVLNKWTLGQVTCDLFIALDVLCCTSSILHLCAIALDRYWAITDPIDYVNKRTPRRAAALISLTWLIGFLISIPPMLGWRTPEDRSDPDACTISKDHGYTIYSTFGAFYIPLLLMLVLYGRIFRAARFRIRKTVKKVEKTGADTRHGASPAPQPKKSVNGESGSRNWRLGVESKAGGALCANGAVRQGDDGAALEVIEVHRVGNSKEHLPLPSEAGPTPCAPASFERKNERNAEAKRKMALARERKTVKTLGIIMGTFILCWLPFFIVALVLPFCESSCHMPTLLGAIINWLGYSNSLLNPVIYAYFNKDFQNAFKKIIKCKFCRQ
The assay is described as follows: [35S]-GTPγS binding assay. The format is biochemical. Particulars: read-out: GTPγS (%EMax). As to the method:
The [^35S]-GTPγS binding assay was similar to that used by Lazareno and Birdsall, Br. J. Pharmacol. 109:1120 (1993). Briefly, 5-HT1A cloned receptor membrane fragments (as used for 5-HT1A receptor binding assays) were stored at -70°C until needed. When needed, membranes were rapidly thawed, centrifuged at 40,000 x g for 10 minutes and resuspended at 4 °C for 10 minutes in assay buffer (25 mM HEPES, 3 mM MgCl2, 100 mM NaCl, 1 mM EDTA, 10 uM GDP, […], pH 8.0). These membranes were then incubated for 30 minutes at 30°C with [^35S]GTPgS (1 nM) in the presence of vehicle, test compound (one to eight concentrations), or excess 8-OH-DPAT to define maximum agonist response. All reactions are terminated by the addition of ice cold Tris buffer followed by rapid filtration using a Tom Tech® filtration device to separate bound from free [^35S]GTPgS. Agonists produce an increase in the amount of [^35S]GTPgS bound whereas antagonists produce no increase in binding. Bound radioactivity was counted and analyzed as above.
On the technique in general: GTPγS is a poorly hydrolysed GTP analogue; its binding reports G protein activation.

Assay [2] deals with T2, human 5-HT1A receptor subtype (5-HT1A.CHO cells) (Homo sapiens, UniProt P08908).
T2 construct: expressed in transfected cells
T2 sequence (P08908 1-422): T1 sequence (P08908 1-422)
The assay is described as follows: cAMP formation in forskolin-treated cells (cAMP SPA assay). Particulars: value in brackets; forskolin 1 uM. Type of assay: cell-based. As for the experimental part: (§1) The PCR cloning of the human 5-HT1A receptor subtype from a human genomic library has been described previously Chanda et al., Mol. Pharmacol., 43:516 (1993). A stable Chinese hamster ovary cell line expressing the human 5-HT1A receptor subtype (5-HT1A.CHO cells) was employed throughout this study. Cells were maintained in DMEM supplemented with 10% foetal calf serum, non-essential amino acids and penicillin/ streptomycin.
The following assays were performed by incubating the cells with DMEM containing 25 mM HEPES, 5 mM theophylline and 10 µM pargyline for a period of 20 minutes at 37°C. Functional activity was assessed by treating the cells with forskolin (1 uM final concentration) followed immediately by test compound (6 concentrations) for an additional 10 minutes at 37°C. In separate experiments, 6 concentrations of antagonist were preincubated for 20 minutes prior to the addition of 10 nM 8-OH-DPAT and forskolin. The reaction was terminated by removal of the media and addition of 0.5 ml ice cold assay buffer. Plates were stored at -20°C prior to assessment of cAMP formation by a cAMP SPA assay (Amersham).

For assay [3], the target named is T3, human 5-HT1A receptor subtype (Homo sapiens, UniProt P08908).
T3 construct: expressed in transfected cells
T3 sequence (P08908 1-422): T1 sequence (P08908 1-422)
The assay is described as follows: 5-HT1A receptor binding assay with [3H]8-OH-DPAT on CHO cell membranes. Particulars: [3H]8-OH-DPAT 1.5 nM. As for the experimental part:
as §1
Cells were grown to 95-100% confluency as a monolayer before membranes were harvested for binding studies. Cells were gently scraped from the culture plates, transferred to centrifuge tubes, and washed twice by centrifugation (2000 rpm for 10 min., 4°C) in buffer (50 mM Tris; pH 7.5). The resulting pellets were aliquoted and placed at -80°C. On the day of assay, the cells were thawed on ice, and resuspended in buffer. Studies were conducted using [^3H]8-OH-DPAT as the radioligand. The binding assay was performed in 96 well microtiter plates in a final total volume of 250 µL of buffer. Competition experiments were performed by using 7 concentrations of unlabelled drug and a final ligand concentration of 1.5 nM. Nonspecific binding was determined in the presence of 10 µM 5HT. Saturation analysis was conducted by using [^3H]8-OH-DPAT at concentrations ranging from 0.3-30 nM. Following a 30 minute incubation at room temperature, the reaction was terminated by the addition of ice cold buffer and rapid filtration using a M-96 Brandel Cell Harvester (Gaithersburg, MD) through a GF/B filter presoaked for 30 minutes in 0.5% polyethyleneimine.

[4] abbreviates: value in brackets, or a lone % in the cell, maximum agonist response defined by excess 8-OH-DPAT.

A word on the Emax: it is the size of the effect at its maximum, as opposed to the concentration needed. A word on the Ki: it is the dissociation constant of the complex between target and ligand, obtained from inhibition or displacement.

As to `COc1cc(N2CCN([C@H]3CC[C@@H](c4c[nH]c5ccc(C#N)cc54)CC3)CC2)c2ncccc2c1` [Example 44c, 3-{(1,4-cis)-4-[4-(6-Methoxy-quinolin-8-yl)-piperazin-1-yl]-cyclohexyl}-1H-indole-5-carbonitrile], the Emax in assay [1] (setting [4]) and in assay [2] was 0% in each case.
The compound `Fc1ccc2c(c1)[nH]cc2[C@H]1CC[C@H](N2CCN(c3cccc4[nH]ccc34)CC2)CC1` [Example 4b, 6-Fluoro-3-[trans-4-[4-(1H-indol-4-yl)-1-piperazinyl]cyclohexyl]-1H-indole] yielded a Ki in assay [3] of 5.45 nM. In assay [2], this compound yielded an Emax of 7.5%.
In assay [2], `N#Cc1ccc2[nH]cc([C@H]3CC[C@@H](N4CCN(c5cccc6[nH]ccc56)CC4)CC3)c2c1` [Example 7a, 3-{4-[(1,4-cis)-4-(1H-indol-4-yl)-piperazinyl-1-yl]cyclohexyl} -1H-indole-5-carbonitrile] gave a maximal response (Emax) of 0%.
As for `c1cc(N2CCN([C@H]3CC[C@H](c4c[nH]c5ccccc54)CC3)CC2)c2cc[nH]c2c1` [Example 1b, 3-[trans-4-[4-(1H-indol-4-yl)-1-piperazinyl]cyclohexyl]-1H-indole], the Ki in assay [3] is 5.29 nM. Also, the maximal response (Emax) in assay [1] (setting [4]) was determined as 32%; in assay [2], 77%.
Taken in the same sequence, the figures for `c1cc(N2CCN([C@H]3CC[C@@H](c4c[nH]c5ccccc54)CC3)CC2)c2cc[nH]c2c1` [Example 1a, 3-[cis-4-[4-(1H-Indol-4-yl)-1-piperazinyl]cyclohexyl]-1H-indole] were 32 nM, 0% and 0%.
Take `N#Cc1ccc2[nH]cc([C@H]3CC[C@@H](N4CCN(c5cccc6cccnc56)CC4)CC3)c2c1` [Example 29a, 3-[(1,4-cis)-4-(4-Quinolin-8-yl-piperazin-1-yl)-cyclohexyl] -1H-indole-5-carbonitrile]: the maximal effect (Emax) in assay [1] amounted to 23%.
In the case of `Fc1ccc2[nH]cc([C@H]3CC[C@H](N4CCN(c5cccc6cccnc56)CC4)CC3)c2c1` [Example 27b, 8-{4-[(1,4-trans)-4-(5-Fluoro-1H-indol-3-yl)-cyclohexyl] -piperazin-1-yl}-quinoline], the maximal effect (Emax) in assay [1] came to 66%.
Compound `Fc1ccc2c(c1)[nH]cc2[C@H]1CC[C@@H](N2CCN(c3cccc4[nH]ccc34)CC2)CC1` [Example 4a, 6-Fluoro-3-[cis-4-[4-(1H-indol-4-yl)-1-piperazinyl]cyclohexyl]-1H-indole] showed an inhibition constant Ki in assay [3] of 33.5 nM. Besides, the maximal response (Emax) in assay [1] (setting [4]) and in assay [2] was 0% in each case.
For the compound `Cc1[nH]c2ccccc2c1[C@H]1CC[C@@H](N2CCN(c3cccc4[nH]ccc34)CC2)CC1` [Example 9a, 3-[cis-4-[4-(1H-Indol-4-yl)-1-piperazinyl]cyclohexyl] -2-methyl-1H-indole], the affinity in assay [3] corresponds to a Ki of 87.1 nM.
Regarding `c1cc(N2CCN([C@H]3CC[C@@H](c4c[nH]c5ncccc54)CC3)CC2)c2cc[nH]c2c1` [Example 10a, 3-{(1,4-cis)-4-[4-(1H-Indole-4-yl)-piperazin-1-yl]-cyclohexyl}-1H-pyrrolo[2,3-b]pyridine], the maximal effect (Emax) in assay [2] is 0%.
In the case of `Fc1ccc2[nH]cc([C@H]3CC[C@@H](N4CCN(c5cccc6cccnc56)CC4)CC3)c2c1` [Example 27a, 8-{4-[(1,4-cis)-4-(5-Fluoro-1H-indol-3-yl)-cyclohexyl] -piperazin-1-yl}-quinoline], the Emax in assay [1] stood at 20%; in assay [2] it was 0%.
Compound `Fc1ccc2[nH]cc([C@H]3CC[C@H](N4CCN(c5cccc6[nH]ccc56)CC4)CC3)c2c1` [Example 3b, 5-Fluoro-3-[trans-4-[4-(1H-indol-4-yl)-1-piperazinyl]cyclohexyl]-1H-indole] had an inhibition constant (Ki) in assay [3] of 4.62 nM. In addition, the values for the maximal response (Emax) in assay [1] and in assay [2] were 51% and 0%, respectively.
`Clc1ccc2[nH]cc([C@H]3CC[C@H](N4CCN(c5cccc6[nH]ccc56)CC4)CC3)c2c1` [Example 6b, 5-Chloro-3-[trans-4-[4-(1H-indol-4-yl)-1-piperazinyl]cyclohexyl]-1H-indole] displayed an inhibition constant (Ki) in assay [3] of 58.3 nM.
Take `Cn1cc([C@H]2CC[C@@H](N3CCN(c4cccc5cccnc45)CC3)CC2)c2cc(F)ccc21` [Example 28, 8-{4-(1,4-cis)-4-[4-(5-Fluoro-1-methyl-1H-indol-3-yl)-cyclohexyl] -piperazin-1-yl}-quinoline]: the Emax in assay [1] and in assay [2] was 0% each time.
`Fc1ccc2[nH]cc([C@H]3CC[C@@H](N4CCN(c5cccc6c5OCCO6)CC4)CC3)c2c1` [Example 24a, 3-{(1,4-cis)-4-[4-(2,3-Dihydro-benzo[1,4]dioxin-5-yl)-piperazin-1-yl]-cyclohexyl}-5-fluoro-1H-indole]: the maximal effect (Emax) in assay [1] turned out to be 15.4%.
Take `COc1ccc2[nH]cc([C@H]3CC[C@@H](N4CCN(c5cccc6[nH]ccc56)CC4)CC3)c2c1` [Example 8a, 5-Methoxy-3-[cis-4-[4-(1H-indol-4-yl)-1-piperazinyl]cyclohexyl]-1H-indole]: the inhibitory constant (Ki) in assay [3] is 60.3 nM. Further, the maximum response (Emax) in assay [1] (setting [4]) and in assay [2] was 0% in each case.
As to `Fc1cccc2[nH]cc([C@H]3CC[C@H](N4CCN(c5cccc6[nH]ccc56)CC4)CC3)c12` [Example 2b, 4-Fluoro-3-[trans-4-[4-(1H-indol-4-yl)-1-piperazinyl]cyclohexyl]-1H-indole], the Ki in assay [3] is 22.3 nM.
For the compound `Cc1[nH]c2ccccc2c1[C@H]1CC[C@H](N2CCN(c3cccc4[nH]ccc34)CC2)CC1` [Example 9b, 3-[trans-4-[4-(1H-Indol-4-yl)-1-piperazinyl]cyclohexyl] -2-methyl-1H-indole], affinity in assay [3] was put at a Ki of 13 nM.
With `Fc1ccc2[nH]cc([C@H]3CC[C@H](N4CCN(c5cccc6c5OCCO6)CC4)CC3)c2c1` [Example 24b, 3-{(1,4-trans)-4-[4-(2,3-Dihydro-benzo[1,4]dioxin-5-yl)-piperazin-1-yl]-cyclohexyl}-5-fluoro-1H-indole], in assay [1], the Emax came out at 73%.
In turn, `Fc1cccc2[nH]cc([C@H]3CC[C@@H](N4CCN(c5cccc6[nH]ccc56)CC4)CC3)c12` [Example 2a, 4-Fluoro-3-[cis-4-[4-(1H-indol-4-yl)-1-piperazinyl]cyclohexyl]-1H-indole] had a Ki in assay [3] of 117 nM.
As to `Fc1ccc2c(c1)[nH]cc2[C@H]1CC[C@@H](N2CCN(c3cccc4c3OCCO4)CC2)CC1` [Example 25a, 3-{(1,4-cis)-4-[4-(2,3-Dihydro-benzo[1,4]dioxin-5-yl)-piperazin-1-yl]-cyclohexyl}-6-fluoro-1H-indole], the maximum response (Emax) in assay [1] worked out at 9%.
`Fc1ccc2[nH]cc([C@H]3CC[C@@H](N4CCN(c5cccc6[nH]ccc56)CC4)CC3)c2c1` [Example 3a, 5-Fluoro-3-[cis-4-[4-(1H-indot-4-yl)-1-piperazinyl]cyclohexyl]-1H-indole] had an inhibitory constant (Ki) in assay [3] of 36.7 nM. The Emax in assay [1] was found to be 10%; in assay [2], 0%.
In turn, `COc1ccc2[nH]cc([C@H]3CC[C@H](N4CCN(c5cccc6[nH]ccc56)CC4)CC3)c2c1` [Example 8b, 5-Methoxy-3-[trans-4-[4-(1H-indol-4-yl)-1-piperazinyl]cyclohexyl]-1H-indole] registered a Ki in assay [3] of 2.87 nM. Besides, the Emax in assay [1] (setting [4]) was 32%; in assay [2] it was 77%.
